The source of these data is US20100146643A1, “RAPID IN VIVO MODEL FOR ANGIOGENESIS” (ANTICANCER, INC, priority 2006, published 2010).

In experiment [1] the test system is XPA-1-RFP human pancreatic cancer. To be noted: liver metastasis of XPA-1-RFP, ND-GFP transgenic nude mice; cited from earlier work.
In experiment [2] the test system is MIA PaCa-2 human pancreatic cancer. To be noted: orthotopically transplanted MIA PaCa-2-RFP, ND-GFP transgenic nude mice; cited from earlier work.
In experiment [3] the test system is B16F10-RFP murine melanoma. Particulars: ND-GFP mice transplanted with B16F10-RFP; cited from earlier work.
The test system of experiment [4] is nascent blood vessels in bFGF-containing Gelfoam. Put plainly: Gelfoam subcutaneous implant angiogenesis model in ND-GFP transgenic nude mice. It is filed as in vivo, mouse. How it is done: Transgenic C57/B6 nude mice that produce green fluorescent protein (GFP) in endothelial cells were used. These transgenic mice (6-8 weeks old) were anesthetized with tribromoethanol. Gelfoam® (Pharmacia & Upjohn company, Kalamazoo, Mich.) blocks (5×5 mm) were either treated with 300 ng basic fibroblast growth factor (bFGF) (Chemicon, Temecula, Calif.) in 75 μl RPMI 1640 medium (Cellgro, Herndon, Va.) or not treated. The Gelfoam® blocks were transplanted into the subcutis on both flanks of the transgenic mice, a treated block on one flank and an untreated block on the other. One group of mice was given daily ip injections of 5 μg/g of doxorubicin and another group was given 0.9% NaCl solution (vehicle control) at days 0, 1, and 2 after transplantation of Gelfoam®. Skin flaps were made at day 7 under anesthesia. Angiogenesis was quantified by measuring the length of fluorescent nascent blood vessels in the skin flap by in vivo fluorescence microscopy imaging.
A Leica fluorescence stereo microscope model LZ12 equipped with a mercury lamp and a 50-W power supply was used. Selective excitation of GFP was produced through a D425/60 band-pass filter and a 470 DCXR dichroic mirror. Emitted fluorescence was collected through a long-pass filter (GG475; Chroma Technology, Brattleboro, Vt.) on a Hamamatsu C5810 3-chip cooled color charge-coupled device camera (Hamamatsu Photonics, Bridgewater, N.J.). Images were processed for contrast and brightness and analyzed with the use of IMAGE PRO PLUS 3.1 software (Media Cybernetics, Silver Spring, Md.). High-resolution images of 1024×724 pixels were captured directly on an IBM PC or continuously through video output on a high-resolution Sony VCR (model SLVR1000; Sony, Tokyo).
The experimental data are expressed as the mean ±SD. Statistical analysis was performed using the two-tailed Student's t test.

[5] abbreviates: Gelfoam containing 300 ng bFGF, mice given 0.9% NaCl, day 7.

Turning to `Nc1ccn([C@@H]2O[C@H](CO)[C@@H](O)C2(F)F)c(=O)n1` [Gemcitabine], the “mean nascent blood vessel density in the liver metastases” value in experiment [1] is reported as “significantly decreased”. In experiment [2], the “mean nascent blood vessel density in the tumor” value is on record as “significantly decreased” and the tumor volume entry was “decreased tumor volume”.
On to `COc1cccc2c1C(=O)c1c(O)c3c(c(O)c1C2=O)C[C@@](O)(C(=O)CO)C[C@@H]3O[C@H]1C[C@H](N)[C@H](O)[C@H](C)O1` [doxorubicin], for which, in experiment [3], the nascent tumor angiogenesis result is given as “inhibit nascent tumor angiogenesis” and the tumor growth result is “inhibit”. Besides, the “extent of angiogenesis (mean nascent blood vessel length, FIG. 4) in bFGF-treated Gelfoam” value in experiment [4] (doxorubicin 5 μg/g ip at days 0, 1, 2, day 7, compared with untreated Gelfoam in NaCl-treated mice) was “reduced below that of untreated Gelfoam® in the sodium chloride treated mice”. For the same molecule, in experiment [4] (doxorubicin 5 μg/g ip at days 0, 1, 2, skin flap at day 7, Gelfoam with 300 ng bFGF), the “neovasculature in the bFGF-treated foam (FIG. 2c)” value is reported as “greatly diminished neovasculature”. Also, the “angiogenesis in the foam not containing bFGF (FIG. 2d)” value in experiment [4] (doxorubicin 5 μg/g ip at days 0, 1, 2, skin flap at day 7, Gelfoam without bFGF) is given as “no observable angiogenesis”.
Take “bFGF: basic fibroblast growth factor (Chemicon), growth factor loaded in Gelfoam to encourage angiogenesis”: in experiment [4] (setting [5]), the “mean nascent blood vessel length” value is approximately 6 mm/mm^2 and the “neovasculature formed in the bFGF-containing Gelfoam patch (FIG. 2a)” value is reported as “a large complex of neovasculature is formed”.
